Data reported in patent publication US9604998B2, “Inhibitors of the renal outer medullary potassium channel” (MERCK SHARP & DOHME CORP., priority 2013, dated 2017).

What was measured:
hROMK (hKir1.1) = hROMK (hKir1.1) (Homo sapiens (Human), UniProt P48048); experiment: Thallium Flux Assay (ROMK channel functional thallium flux, FLIPR-Tetra); type: cell-based; details: HEK293 cells stably expressing hROMK (hKir1.1); read-out: Thallium Flux IC50
Kir1.1 (ROMK1) = Kir1.1 (ROMK1) (Homo sapiens (Human), UniProt P48048); experiment: Electrophysiology Assay (whole cell voltage clamp, IonWorks Quattro); type: cell-based; details: Chinese hamster ovary cells stably expressing Kir1.1; block during voltage step to 0 mV; read-out: Electrophysiology IC50
Kir1.1 (ROMK1), sequence (P48048 whole entry, species assumed): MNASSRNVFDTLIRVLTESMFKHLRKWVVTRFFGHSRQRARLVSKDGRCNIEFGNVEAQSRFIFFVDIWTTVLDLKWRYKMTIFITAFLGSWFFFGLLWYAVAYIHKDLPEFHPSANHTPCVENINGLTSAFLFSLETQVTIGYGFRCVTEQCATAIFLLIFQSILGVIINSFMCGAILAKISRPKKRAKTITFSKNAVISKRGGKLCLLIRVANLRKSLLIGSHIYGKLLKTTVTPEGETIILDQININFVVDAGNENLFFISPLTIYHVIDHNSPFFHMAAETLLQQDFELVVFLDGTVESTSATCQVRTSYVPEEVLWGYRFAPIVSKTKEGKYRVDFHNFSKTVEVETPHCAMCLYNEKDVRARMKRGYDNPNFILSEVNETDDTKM
How it was run: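 CHO cells stably expressing the channel, induced overnight with 1 mM sodium butyrate, were recorded in amphotericin-perforated patch mode. The test pulse was a 100 ms step to 0 mV from −70 mV, then a −70 to +70 mV ramp, applied before and after a 6 min compound incubation. Current amplitudes were compared.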

hROMK (hKir1.1), sequence (P48048 whole entry): as the sequence (P48048 whole entry, species assumed) above

Compound | IC50 (hROMK (hKir1.1)) [nM] | IC50 (Kir1.1 (ROMK1)) [nM]
Cc1c([C@H]2CN3CCN(CC(O)c4ccc(-n5cnnn5)nc4)C[C@H]3CO2)ccc(F)c1C#N (single isomer, unassigned) [Example 17] | 850 | 150
Cc1c([C@@H]2CN3CCN(CCc4ccc5c(c4Br)COC5=O)C[C@H]3CO2)ccc2c1COC2=O [Example 91] | 90 | 210
Cc1c(CCN2CCN3C[C@@H](c4ccc5c(c4)COC5=O)OC[C@@H]3C2)ccc2c1COC2=O [Example 69] | 60 | 20
Cc1c([C@H]2CN3CCN(CCc4ccc5c(c4)COC5=O)C[C@H]3CN2)ccc(F)c1C#N [Example 104] | 110 | 400
